Measured values published in US10556907B2 (AbbVie Inc., priority 2015, dated 2020).
Where a name gives a salt, the structure may show the parent alone.

Tests used:
Test in all cases: Method 1: intracellular Ca2+ release (FLIPR, Calcium 5) in recombinant CHO-K1 cells
Format in all cases: cell-based
human S1PR1 receptor = target: T1, human S1PR1 receptor (Homo sapiens, UniProt P21453); conditions: (1): determined with method 1; read-out: S1P1 EC50
T1 construct: host or cells: CHO-K1
In short: (§1)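 Cells expressing the receptor with promiscuous Gq/i5 are dye-loaded, equilibrated at room temperature and challenged with test compound while fluorescence is recorded by FLIPR. Potency is derived by nonlinear fitting after normalization to phospho-fingolimod.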

human S1PR4 receptor = target: T2, human S1PR4 receptor (Homo sapiens, UniProt O95977); conditions: (1): determined with method 1; read-out: S1P4 EC50
T2 construct: host or cells: CHO-K1
T2 sequence (O95977 1-384): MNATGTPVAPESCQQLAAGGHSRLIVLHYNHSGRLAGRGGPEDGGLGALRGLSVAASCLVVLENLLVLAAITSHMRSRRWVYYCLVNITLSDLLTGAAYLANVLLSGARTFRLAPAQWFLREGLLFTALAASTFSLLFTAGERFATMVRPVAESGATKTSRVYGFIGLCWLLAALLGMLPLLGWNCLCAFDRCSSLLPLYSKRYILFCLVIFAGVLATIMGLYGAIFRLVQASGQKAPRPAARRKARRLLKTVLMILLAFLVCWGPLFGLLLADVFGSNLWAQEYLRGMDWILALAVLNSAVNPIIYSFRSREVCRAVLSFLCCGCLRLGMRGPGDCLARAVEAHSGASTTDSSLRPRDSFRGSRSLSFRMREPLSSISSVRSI
In short: as §1

human S1PR5 receptor = target: T3, human S1PR5 receptor (Homo sapiens, UniProt Q9H228); conditions: agonist potency, determined with method 1 (symbols A-D); read-out: S1P5 EC50 range
T3 construct: host or cells: CHO-K1
T3 sequence (Q9H228 whole entry): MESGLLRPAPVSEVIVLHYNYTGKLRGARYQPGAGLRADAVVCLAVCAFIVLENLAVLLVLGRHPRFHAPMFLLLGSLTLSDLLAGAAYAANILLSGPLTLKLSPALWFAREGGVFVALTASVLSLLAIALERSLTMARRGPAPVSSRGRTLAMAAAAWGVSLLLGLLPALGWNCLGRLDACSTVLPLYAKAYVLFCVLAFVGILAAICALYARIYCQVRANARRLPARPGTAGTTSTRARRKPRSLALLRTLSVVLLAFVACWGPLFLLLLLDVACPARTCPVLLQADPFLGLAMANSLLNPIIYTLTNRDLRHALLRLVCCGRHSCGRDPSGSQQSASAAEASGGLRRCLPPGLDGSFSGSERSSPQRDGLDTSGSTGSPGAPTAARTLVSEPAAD
In short: as §1

human S1PR3 receptor = target: T4, human S1PR3 receptor (Homo sapiens, UniProt Q99500); conditions: (1): determined with method 1; read-out: S1P3 EC50
T4 construct: host or cells: CHO-K1
T4 sequence (Q99500 whole entry): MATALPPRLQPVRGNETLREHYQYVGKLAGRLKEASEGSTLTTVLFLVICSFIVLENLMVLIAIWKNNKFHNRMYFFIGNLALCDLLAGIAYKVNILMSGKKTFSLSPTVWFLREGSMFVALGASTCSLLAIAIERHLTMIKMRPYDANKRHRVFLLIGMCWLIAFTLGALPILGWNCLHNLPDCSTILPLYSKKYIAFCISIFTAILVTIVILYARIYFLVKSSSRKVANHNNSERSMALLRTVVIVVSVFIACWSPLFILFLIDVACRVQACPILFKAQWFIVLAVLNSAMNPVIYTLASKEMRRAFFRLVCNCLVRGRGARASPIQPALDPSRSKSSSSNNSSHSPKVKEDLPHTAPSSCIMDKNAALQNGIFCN
In short: as §1

T1 sequence (P21453 whole entry): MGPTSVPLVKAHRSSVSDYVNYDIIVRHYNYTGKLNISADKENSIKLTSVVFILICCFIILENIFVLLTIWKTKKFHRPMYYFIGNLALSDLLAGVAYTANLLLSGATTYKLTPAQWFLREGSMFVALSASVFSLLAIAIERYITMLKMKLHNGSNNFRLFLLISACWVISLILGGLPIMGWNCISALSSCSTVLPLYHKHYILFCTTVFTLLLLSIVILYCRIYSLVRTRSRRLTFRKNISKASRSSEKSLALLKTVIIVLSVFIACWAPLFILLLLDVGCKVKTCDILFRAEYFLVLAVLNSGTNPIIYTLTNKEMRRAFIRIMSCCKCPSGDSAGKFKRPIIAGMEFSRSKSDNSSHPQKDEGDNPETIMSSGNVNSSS

Cc1cc(-c2ncc3c(n2)CCN(CC(C)CC(=O)O)C3)ccc1OCc1cccc(C(F)(F)F)c1C (stereo not drawn) [Compound 273, 3-methyl-4-(2-(3-methyl-4-((2-methyl-3-(trifluoromethyl)benzyl)oxy)phenyl)-7,8-dihydropyrido[4,3-d]pyrimidin-6(5H)-yl)butanoic acid]
EC50 (human S1PR1 receptor): > 1000 nM
EC50 (human S1PR4 receptor): > 1000 nM
EC50 (human S1PR5 receptor): 10 to 100 nM

C[C@H](CC(=O)O)CN1CCc2nc(-c3ccc(C(F)(F)Cc4ccc(Cl)cc4)cc3)ncc2C1 (single isomer, unassigned) [Compound 294, 4-(2-(4-(2-(4-chlorophenyl)-1,1-difluoroethyl)phenyl)-7,8-dihydropyrido[4,3-d]pyrimidin-6(5H)-yl)-3-methylbutanoic acid]
EC50 (human S1PR1 receptor): > 1000 nM
EC50 (human S1PR4 receptor): > 1000 nM
EC50 (human S1PR5 receptor): 100 to 1000 nM

CC(CC(=O)O)CN1CCc2nc(C3CC(OCc4ccccc4)C3)ncc2C1 (stereo not drawn) [Compound 333, 4-(2-(3-(benzyloxy)cyclobutyl)-7,8-dihydropyrido[4,3-d]pyrimidin-6(5H)-yl)-3-methylbutanoic acid]
EC50 (human S1PR1 receptor): > 1000 nM
EC50 (human S1PR4 receptor): > 1000 nM
EC50 (human S1PR5 receptor): 1000 to 10000 nM

Cc1cccc(COc2ccc(-c3ncc4c(n3)CCN(CC(C)CC(=O)O)C4)c(F)c2)c1 (stereo not drawn) [Compound 264, 4-[2-[2-fluoro-4-(m-tolylmethoxy)phenyl]-7,8-dihydro-5H-pyrido[4,3-d]pyrimidin-6-yl]-3-methyl-butanoic acid 2,2,2-trifluoroacetic acid salt]
EC50 (human S1PR1 receptor): > 1000 nM
EC50 (human S1PR4 receptor): > 1000 nM
EC50 (human S1PR5 receptor): 10 to 100 nM

Cc1ccc(C)c(COc2ccc(-c3ncc4c(n3)CCN(CC(C)CC(=O)O)C4)cc2C)c1 (stereo not drawn) [Compound 311, 4-[2-[4-[(2,5-dimethylphenyl)methoxy]-3-methyl-phenyl]-7,8-dihydro-5H-pyrido[4,3-d]pyrimidin-6-yl]-3-methyl-butanoic acid 2,2,2-trifluoroacetic acid salt]
EC50 (human S1PR1 receptor): > 1000 nM
EC50 (human S1PR4 receptor): > 1000 nM
EC50 (human S1PR5 receptor): 100 to 1000 nM

Cc1cc(-c2ncc3c(n2)CCN(CC(C)CC(=O)O)C3)ccc1OCc1ccc(F)cc1 (stereo not drawn) [Compound 269, 4-[2-[4-[(4-fluorophenyl)methoxy]-3-methyl-phenyl]-7,8-dihydro-5H-pyrido[4,3-d]pyrimidin-6-yl]-3-methyl-butanoic acid 2,2,2-trifluoroacetic acid salt]
EC50 (human S1PR1 receptor): > 1000 nM
EC50 (human S1PR4 receptor): > 1000 nM
EC50 (human S1PR5 receptor): 10 to 100 nM

CC(CC(=O)O)CN1CCc2nc(-c3ccc(C4CC4c4ccc(Cl)cc4)cc3)ncc2C1 (stereo not drawn) [Compound 323, 4-(2-(4-(2-(4-chlorophenyl)cyclopropyl)phenyl)-7,8-dihydropyrido[4,3-d]pyrimidin-6(5H)-yl)-3-methylbutanoic acid]
EC50 (human S1PR1 receptor): > 1000 nM
EC50 (human S1PR4 receptor): > 1000 nM
EC50 (human S1PR5 receptor): 1000 to 10000 nM

Cc1cc(-c2ncc3c(n2)CCN(C[C@H](C)CC(=O)O)C3)ccc1OCc1ccccc1 [Compound 319, (R)-4-(2-(4-(benzyloxy)-3-methylphenyl)-7,8-dihydropyrido[4,3-d]pyrimidin-6(5H)-yl)-3-methylbutanoic acid]
EC50 (human S1PR1 receptor): > 1000 nM
EC50 (human S1PR4 receptor): > 1000 nM
EC50 (human S1PR5 receptor): 100 to 1000 nM

CC(CC(=O)O)CN1CCc2nc(-c3ccc(OCc4cccc(F)c4)cc3F)ncc2C1 (stereo not drawn) [Compound 289, 4-[2-[2-fluoro-4-[(3-fluorophenyl)methoxy]phenyl]-7,8-dihydro-5H-pyrido[4,3-d]pyrimidin-6-yl]-3-methyl-butanoic acid 2,2,2-trifluoroacetic acid salt]
EC50 (human S1PR1 receptor): > 1000 nM
EC50 (human S1PR4 receptor): > 1000 nM
EC50 (human S1PR5 receptor): 100 to 1000 nM

O=C(O)CN1CCc2nc(-c3ccc(OCc4cccc(F)c4F)cc3)ncc2C1 [Compound 28, 2-(2-(4-((2,3-difluorobenzyl)oxy)phenyl)-7,8-dihydropyrido[4,3-d]pyrimidin-6(5H)-yl)acetic acid]
EC50 (human S1PR1 receptor): > 1000 nM
EC50 (human S1PR4 receptor): < 1000 nM
EC50 (human S1PR5 receptor): 10 to 100 nM

CCc1ccc(COc2ccc(-c3ncc4c(n3)CCN(CC(C)CC(=O)O)C4)cc2C)cc1 (stereo not drawn) [Compound 306, 4-[2-[4-[(4-ethylphenyl)methoxy]-3-methyl-phenyl]-7,8-dihydro-5H-pyrido[4,3-d]pyrimidin-6-yl]-3-methyl-butanoic acid 2,2,2-trifluoroacetic acid salt]
EC50 (human S1PR1 receptor): > 1000 nM
EC50 (human S1PR4 receptor): > 1000 nM
EC50 (human S1PR5 receptor): 100 to 1000 nM

CC(C)(CC(=O)O)CN1CCc2nc(-c3ccc(OCc4cccc(Cl)c4)cc3)ncc2C1 [Compound 216, 4-(2-(4-((3-chlorobenzyl)oxy)phenyl)-7,8-dihydropyrido[4,3-d]pyrimidin-6(5H)-yl)-3,3-dimethylbutanoic acid]
EC50 (human S1PR1 receptor): > 1000 nM
EC50 (human S1PR4 receptor): > 1000 nM
EC50 (human S1PR5 receptor): 1000 to 10000 nM

CC(CC(=O)O)CN1CCc2nc(-c3ccc(C4CC4c4cccc(Cl)c4)cc3)ncc2C1 (stereo not drawn) [Compound 293, 4-(2-(4-(2-(3-chlorophenyl)cyclopropyl)phenyl)-7,8-dihydropyrido[4,3-d]pyrimidin-6(5H)-yl)-3-methylbutanoic acid]
EC50 (human S1PR1 receptor): > 1000 nM
EC50 (human S1PR4 receptor): > 1000 nM
EC50 (human S1PR5 receptor): 100 to 1000 nM

CC(C(=O)O)N1CCc2nc(-c3ccc(OCc4ccc(Cl)cc4)cc3)ncc2C1 (stereo not drawn) [Compound 312, 2-(2-(4-((4-chlorobenzyl)oxy)phenyl)-7,8-dihydropyrido[4,3-d]pyrimidin-6(5H)-yl)propanoic acid]
EC50 (human S1PR1 receptor): > 1000 nM
EC50 (human S1PR4 receptor): > 1000 nM
EC50 (human S1PR5 receptor): 100 to 1000 nM

Cc1cc(-c2ncc3c(n2)CCN(CC(C)CC(=O)O)C3)ccc1OCc1cccc(C)c1C (stereo not drawn) [Compound 300, 4-[2-[4-[(2,3-dimethylphenyl)methoxy]-3-methyl-phenyl]-7,8-dihydro-5H-pyrido[4,3-d]pyrimidin-6-yl]-3-methyl-butanoic acid 2,2,2-trifluoroacetic acid salt]
EC50 (human S1PR1 receptor): > 1000 nM
EC50 (human S1PR4 receptor): > 1000 nM
EC50 (human S1PR5 receptor): 100 to 1000 nM

C[C@@H](CC(=O)O)CN1CCc2nc(-c3ccc(CCc4ccc(Cl)cc4)cc3)ncc2C1 [Compound 278, (S)-4-(2-(4-(4-chlorophenethyl)phenyl)-7,8-dihydropyrido[4,3-d]pyrimidin-6(5H)-yl)-3-methylbutanoic acid]
EC50 (human S1PR1 receptor): > 1000 nM
EC50 (human S1PR4 receptor): > 1000 nM
EC50 (human S1PR5 receptor): 10 to 100 nM

O=C(O)CN1CCc2nc(Cc3c(F)cccc3F)ncc2C1 [Compound 26, 2-(2-(2,6-difluorobenzyl)-7,8-dihydropyrido[4,3-d]pyrimidin-6(5H)-yl)acetic acid]
EC50 (human S1PR1 receptor): > 1000 nM
EC50 (human S1PR4 receptor): > 1000 nM
EC50 (human S1PR5 receptor): 1000 to 10000 nM

O=C(O)CC1CC(N2CCc3nc(-c4ccc(OCc5ccc(Cl)c(Cl)c5)cc4)ncc3C2)C1 (stereo not drawn) [Compound 4, 2-(3-(2-(4-((3,4-dichlorobenzyl)oxy)phenyl)-7,8-dihydropyrido[4,3-d]pyrimidin-6(5H)-yl)cyclobutyl)acetic acid]
EC50 (human S1PR1 receptor): > 1000 nM
EC50 (human S1PR4 receptor): > 1000 nM
EC50 (human S1PR5 receptor): 100 to 1000 nM

CC(CC(=O)O)CN1CCc2nc(-c3ccc(C(F)(F)Cc4cccc(Cl)c4)cc3)ncc2C1 (stereo not drawn) [Compound 328, 4-(2-(4-(2-(3-chlorophenyl)-1,1-difluoroethyl)phenyl)-7,8-dihydropyrido[4,3-d]pyrimidin-6(5H)-yl)-3-methylbutanoic acid]
EC50 (human S1PR1 receptor): > 1000 nM
EC50 (human S1PR4 receptor): > 1000 nM
EC50 (human S1PR5 receptor): 1000 to 10000 nM

O=C(O)CN1CCc2nc(-c3ccc(OCc4ccc(Cl)cc4)cc3)ncc2C1 [Compound 29, 2-(2-(4-((4-chlorobenzyl)oxy)phenyl)-7,8-dihydropyrido[4,3-d]pyrimidin-6(5H)-yl)acetic acid]
EC50 (human S1PR1 receptor): > 1000 nM
EC50 (human S1PR4 receptor): > 1000 nM
EC50 (human S1PR5 receptor): 100 to 1000 nM

O=C(O)C1CC(N2CCc3nc(-c4cccc(OCc5ccccc5)c4)cnc3C2)C1 (stereo not drawn) [Compound 208, 3-(2-(3-(benzyloxy)phenyl)-7,8-dihydropyrido[3,4-b]pyrazin-6(5H)-yl)cyclobutanecarboxylic acid]
EC50 (human S1PR1 receptor): > 1000 nM
EC50 (human S1PR4 receptor): > 1000 nM
EC50 (human S1PR5 receptor): 1000 to 10000 nM

O=C(O)CN1CCc2nc(-c3ccc(OCc4cccc(F)c4)cc3)ncc2C1 [Compound 27, 2-(2-(4-((3-fluorobenzyl)oxy)phenyl)-7,8-dihydropyrido[4,3-d]pyrimidin-6(5H)-yl)acetic acid]
EC50 (human S1PR1 receptor): > 1000 nM
EC50 (human S1PR4 receptor): > 1000 nM
EC50 (human S1PR5 receptor): 10 to 100 nM

O=C(O)CCCN1CCc2nc(C#Cc3ccccc3)ncc2C1 [Compound 48, 4-(2-(phenylethynyl)-7,8-dihydropyrido[4,3-d]pyrimidin-6(5H)-yl)butanoic acid]
EC50 (human S1PR1 receptor): > 1000 nM
EC50 (human S1PR3 receptor): > 1000 nM
EC50 (human S1PR5 receptor): 1000 to 10000 nM

O=C(O)CCN1CCc2nc(-c3ccc(OCc4cccc(C(F)(F)F)c4)cc3)c(F)cc2C1 [Compound 194, 3-(2-(4-((3-trifluoromethylbenzyl)oxy)phenyl)-3-fluoro-7,8-dihydro-1,6-naphthyridin-6(5H)-yl)propanoic acid]
EC50 (human S1PR1 receptor): > 1000 nM
EC50 (human S1PR3 receptor): > 1000 nM
EC50 (human S1PR5 receptor): < 10 nM

O=C(O)CCN1CCc2ncc(-c3ccc(OCc4ccc(Cl)cc4)cc3)nc2C1 [Compound 223, 3-(3-(4-((4-chlorobenzyl)oxy)phenyl)-7,8-dihydropyrido[3,4-b]pyrazin-6(5H)-yl)propanoic acid]
EC50 (human S1PR1 receptor): > 1000 nM
EC50 (human S1PR3 receptor): > 1000 nM
EC50 (human S1PR5 receptor): 1000 to 10000 nM
